Assay results from US20120010075A1 (priority 2009, published 2012).
Read-outs that look alike come from different tables or passages of the source.

Experiments:
[1] = tested on: Leptosphaeria nodorum (LEPTNO); test: Isolated metal-hydrazone complexes versus parent hydrazones, in vitro, Leptosphaeria nodorum (Example 31, Table 7); format: cell-based; conditions: Parastagonospora nodorum; 0.1 μg/mL; copper-minus medium; 72 h
[2] = tested on: Phytophthora infestans; format: in vivo, Phytophthora infestans on tomato; conditions: applied 24 h before inoculation, assessed 7 days after inoculation
[3] = tested on: Leptosphaeria nodorum (LEPTNO); test: In vitro fungitoxicity of hydrazones with and without copper towards Leptosphaeria nodorum (Example 26); format: cell-based; conditions: 72 h at 25° C.; for inhibition of growth at 0.05 µg/mL: Parastagonospora nodorum, 72 h, copper-minus medium, read-out: LEPTNO % Inhn. Minus Copper Observed
[4] = tested on: Phytophthora capsici; test: In vitro fungitoxicity of hydrazones with and without copper towards Phytophthora capsici (Example 28, Table 3); format: cell-based; conditions: 0.050 μg/mL, 48 h; for % Inhn Plus copper Observed: copper-plus AS medium (CuCl2, 50 μM); for inhibition of growth at 0.05 µg/mL: Phytophthora capsici, copper-minus AS medium, read-out: % Inhn Minus copper Observed
[5] = tested on: Ustilago maydis; test: In vitro fungitoxicity of hydrazones with and without copper towards Ustilago maydis (Example 29, Table 4); format: cell-based; conditions: 1 μg/mL, 48 h; for % Inhn. Plus copper Observed: copper-plus medium (CuCl2, 10 μM); for inhibition of growth at 1 µg/mL: Mycosarcoma maydis, copper-minus medium, read-out: % Inhn. Minus copper Observed
[6] = tested on: Septoria tritici isolate USA-184; test: In vitro fungitoxicity of hydrazones with and without copper towards Septoria tritici (Example 30, Table 5); format: cell-based; conditions: Zymoseptoria tritici, 0.05 μg/mL
[7] = hydrazone 50 ppm + 50 μM CuCl2.2H2O, tomato
[8] = compound 0.05 μg/mL, copper-plus medium (CuCl2.2H2O)
[9] = hydrazone 50 ppm with 50 μM CuCl2.2H2O, tomato late blight
[10] = test compound Concn. 0.05 μg/mL
[11] = copper-plus medium (CuCl2 10 μM), test compound Concn. 0.05 μg/mL
[12] = Colby formula, CuCl2, read-out: % Inhibition Plus copper Predicted
[13] = copper-minus medium, 90 h, read-out: % Inhibition Minus copper Observed
[14] = copper-plus medium CuCl2, 90 h, read-out: % Inhibition Plus copper Observed

| Compound | inhibition at 0.1 µg/mL [1] | TLB % Control [2, 7] | inhibition of growth at 0.05 µg/mL ([3]; compound 0.05 μg/mL) | LEPTNO % Inhn. Plus Copper Observed [3, 8] | TLB % Control [2, 9] | melting point | inhibition of growth at 0.05 µg/mL [3, 10] | LEPTNO % Inhn. Plus Copper Observed [3, 11] | % Inhn Plus copper Observed [4] | inhibition of growth at 0.05 µg/mL [4] | % Inhn. Plus copper Observed [5] | inhibition of growth at 1 µg/mL [5] | inhibition at 0.05 µg/mL [6, 12] | inhibition at 0.05 µg/mL [6, 13] | inhibition at 0.05 µg/mL [6, 14] |
| --- | --- | --- | --- | --- | --- | --- | --- | --- | --- | --- | --- | --- | --- | --- | --- |
| O=C(N/N=C/c1cc(Cl)cc(Br)c1O)c1ccccc1 [Example 151] | 30.9% | 83.0% | 11.8% | 97.6% |  |  |  |  |  |  |  |  |  |  |  |
| COc1cccc(/C(C)=N/NC(=O)c2ccccc2C)c1O [Example 300] | 2.5% |  |  |  | 70.0% | 208 to 209 °C | 0% | 97.2% |  |  |  |  |  |  |  |
| COc1cccc(/C(C)=N/NC(=O)c2cccc(C)c2)c1O [Example 301] | 3.5% |  |  |  | 82.0% | 121 to 123 °C | 0% | 97.9% |  |  |  |  |  |  |  |
| O=C(N/N=C/c1cc(Cl)ccc1O)c1ccc(Cl)cc1 [Example 172] | 28.7% | 27.1% | 13.2% | 97.9% |  |  |  |  |  |  |  |  |  |  |  |
| O=C(N/N=C/c1cccc(Cl)c1O)c1ccc(Cl)cc1 [Example 428] | 29.9% |  |  |  | 97.0% | 217 to 219 °C | 44.1% | 98.4% |  |  |  |  |  |  |  |
| O=C(N/N=C/c1cc(Cl)cc(C(F)(F)F)c1O)c1ccc(Cl)cc1 [Example 381] | 43.9% |  |  |  | 100.0% | 232 to 234 °C | 31.8% | 98.6% |  |  |  |  |  |  |  |
| COc1cccc(/C(C)=N/NC(=O)c2cccc(Cl)c2)c1O [Example 304] | 13.3% |  |  |  | 77.0% | 146 to 148 °C | 0% | 97.9% |  |  |  |  |  |  |  |
| O=C(N/N=C/c1cc(Cl)cc(Br)c1O)c1ccccc1O [Example 195] | 21.7% | 89.5% | 19.2% | 97.9% |  |  |  |  |  |  |  |  |  |  |  |
| O=C(N/N=C/c1cc(C(F)(F)F)ccc1O)c1ccc(Cl)cc1 [Example 440] | 23.8% |  |  |  | 98.0% | 252 to 254 °C | 2.9% | 100.0% |  |  |  |  |  |  |  |
| C/C(=N\NC(=O)c1ccc(Cl)cc1)c1cc(Cl)cc(Cl)c1O [Example 136] | 34.7% | 95.0% | 9.7% | 98.6% |  | 260 to 262 °C |  |  |  |  |  |  |  |  |  |
| O=C(N/N=C/c1cc(Cl)cc(Cl)c1O)c1ccc(Cl)cc1 [Example 68] | 7.1% | 75.9% | 15.8% | 97.0% |  |  |  |  |  |  |  |  |  |  |  |
| O=C(N/N=C/c1cccc(C(F)(F)F)c1O)c1ccc(Cl)cc1 [Example 348] | 23.9% |  |  |  | 100.0% | 215 to 216 °C | 16.3% | 98.3% |  |  |  |  |  |  |  |
| C/C(=N\NC(=O)c1cccc(C)c1)c1cc(Cl)cc(Cl)c1O [Example 278] | 16.2% | 90.0% | 1.7% | 97.7% |  | 221 to 223 °C |  |  |  |  |  |  |  |  |  |
| O=C(N/N=C/c1cccc(Cl)c1O)c1cccc(Cl)c1 [Example 427] |  |  |  |  | 98.0% | 174 to 178 °C | 26.1% | 97.9% | 88.6% | 9.1% | 89.3% | 34.3% | 43.8% | 43.8% | 96.7% |
| O=C(N/N=C/c1ccc(Cl)cc1O)c1ccccc1 [Example 233] | 8.4% | 88.1% | 5.6% | 98.1% |  |  |  |  |  |  |  |  |  |  |  |
| C/C(=N\NC(=O)c1ccccc1C)c1cc(Cl)cc(Cl)c1O [Example 137] | 27.2% | 74.0% | 4.5% | 98.5% |  | 226 to 230 °C |  |  |  |  |  |  |  |  |  |
| C/C(=N\NC(=O)c1ccc(Cl)cc1)c1cc(F)cc(F)c1O [Example 578] |  |  |  |  | 100.0% | 276 to 280 °C | 7.2% | 98.0% | 90.4% | 2.8% | 93.8% | 47.4% | 26.7% | 26.7% | 90.7% |
| O=C(N/N=C/c1ccc(Cl)c(Cl)c1O)c1ccccc1 [Example 238] | 20% | 92.5% | 0.5% | 97.6% |  | 249 to 252 °C |  |  |  |  |  |  |  |  |  |
| O=C(N/N=C/c1c(Cl)ccc(Cl)c1O)c1cccc(Cl)c1 [Example 369] |  |  |  |  | 98.0% | 232 to 234 °C | 7% | 95.5% | 44.5% | 0% | 93.6% | 3.1% | 9.3% | 9.3% | 93.2% |
| Cc1ccc(C(=O)N/N=C/c2cc(Br)cc(F)c2O)cc1 [Example 411] | 32.1% |  |  |  | 85.0% | 228 to 229 °C | 8.2% | 97.9% |  |  |  |  |  |  |  |
| C/C(=N\NC(=O)c1cccc(Cl)c1)c1cc(Cl)cc(Cl)c1O [Example 135] | 20.6% | 96.0% | 0.2% | 98.6% |  | 245 to 246 °C |  |  |  |  |  |  |  |  |  |
| O=C(N/N=C/c1cc(Cl)cc(C(F)(F)F)c1O)c1ccccc1O [Example 384] |  |  |  |  | 100.0% | 258 to 260 °C | 28.6% | 95.8% | 71.1% | 0% | 96.6% | 13.6% | 57.5% | 57.5% | 97% |
| O=C(N/N=C/c1cc(C(F)(F)F)ccc1O)c1ccccc1O [Example 443] |  |  |  |  | 83.0% | 277 to 281 °C | 14.6% | 100.0% | 91.2% | 2.4% | 35.3% | 10.2% | 5.8% | 5.8% | 92% |
| Cc1ccc(C(=O)N/N=C/c2ccc(Cl)c(Cl)c2O)c(O)c1 [Example 364] |  |  |  |  | 97.0% | 271 to 278 °C | 8.4% | 95.8% | 23.2% | 0% | 92.9% | 65.5% | 22.4% | 22.4% | 93.7% |
| O=C(N/N=C/c1ccc(Cl)cc1O)c1ccc(Cl)cc1 [Example 392] | 22.8% |  |  |  | 46.0% |  | 15.8% | 97.9% |  |  |  |  |  |  |  |
| C/C(=N\NC(=O)c1ccccc1Cl)c1cc(Cl)cc(Cl)c1O [Example 67] | 4.2% | 75.0% | 2.6% | 91.8% |  |  |  |  |  |  |  |  |  |  |  |
| C/C(=N\NC(=O)Cc1ccccc1)c1cc(Cl)cc(Cl)c1O [Example 140] |  | 81.0% | 6.7% | 96.7% |  | 199 to 204 °C |  |  | 91.4% | 0% | 95.7% | 0% | 0% | 0% | 96.6% |
| O=C(N/N=C/c1cc(Cl)cc(Br)c1O)c1ccc(Cl)cc1 [Example 159] | 27.4% | 91.9% | 11.4% | 98.5% |  |  |  |  |  |  |  |  |  |  |  |
